The values below come from patent US8680159B2, “Bradykinin 1 receptor modulating compounds” (Gruenenthal GmbH, priority 2010, dated 2014).

One assay addresses T1, human B1R receptor (CHO K1 cells stably transfected with the human B1R gene) (Homo sapiens, UniProt P46663).
T1 construct: expressed in transfected cells; host or cells: CHO K1 cells (Chinese hamster ovary), stably transfected
T1 sequence (P46663 1-353): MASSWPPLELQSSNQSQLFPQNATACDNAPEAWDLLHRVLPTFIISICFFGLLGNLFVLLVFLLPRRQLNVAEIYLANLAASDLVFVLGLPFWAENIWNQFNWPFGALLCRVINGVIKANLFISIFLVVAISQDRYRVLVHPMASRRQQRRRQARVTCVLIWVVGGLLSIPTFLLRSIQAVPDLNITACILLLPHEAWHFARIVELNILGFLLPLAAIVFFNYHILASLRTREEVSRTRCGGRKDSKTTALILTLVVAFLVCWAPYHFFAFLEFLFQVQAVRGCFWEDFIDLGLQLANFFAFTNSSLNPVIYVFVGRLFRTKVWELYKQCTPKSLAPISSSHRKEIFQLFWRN
The assay is described as follows: Functional study on the bradykinin receptor 1 (B1R), Ca2+ fluorescence (Fluo-4) FLIPR/Novostar assay, hB1R cells. It is filed as cell-based. The settings on record: CHO-K1, read-out: % Inhibition (h-B1R) at 10 μM. The procedure: The agonistic or antagonistic action of substances can be quantified on the bradykinin receptor 1 (B1R) of the species human and rat using ectopically expressing cell lines (CHO K1 cells) and with the aid of a Ca^2+-sensitive dye (Fluo-4) using a fluorescent imaging plate reader (FLIPR). The indication in % activation is based on the Ca^2+ signal after addition of Lys-Des-Arg^9-bradykinin (0.5 nM) or Des-Arg^9-bradykinin (100 nM). Antagonists lead to suppression of the Ca^2+ influx after the addition of the agonist. % Inhibition compared with the maximum achievable inhibition is indicated.
The agonistic or antagonistic action of substances can be determined on the bradykinin receptor 1 (B1R) of the species human and rat using the following assay. According to this assay, the increase in intracellular Ca^2+ following administration of a B1R agonist is quantified with the aid of a Ca^2+-sensitive dye (Fluo-4 type, Molecular Probes Europe BV, Leiden, Netherlands) using a Fluorescent Imaging Plate Reader (FLIPR, Molecular Devices, Sunnyvale, USA) and/or using a Novostar (BMG Labtech GmbH, Offenburg, Germany).
Chinese hamster ovary cells (CHO K1 cells) which have been stably transfected with the human B1R gene (hB1R cells) or with the B1R gene of the rat (rB1R cells) are used. For functional studies, the cells are plated out on black 96-well plates having a clear base (BD Biosciences, Heidelberg, Germany or Greiner, Frickenhausen, Germany) in a density of 20,000-35,000 cells/well. The cells are left overnight at 37° C. and with 5% CO2 in culture medium (hB1R cells: Nutrient Mixture Ham's F12, Gibco Invitrogen GmbH, Karlsruhe, Germany or DMEM, Sigma-Aldrich, Taufkirchen, Germany; rB1R cells: D-MEM/F12, Gibco Invitrogen GmbH, Karlsruhe, Germany), with 10 vol. % FBS (fetal bovine serum, Gibco Invitrogen GmbH, Karlsruhe, Germany or PAN Biotech GmbH, Aidenbach, Germany). On the following day, the cells are loaded for 60 minutes at 37° C. with 2.13 μM Fluo-4 (Molecular Probes Europe BV, Leiden, Netherlands) in HBSS buffer (Hank's buffered saline solution, Gibco Invitrogen GmbH, Karlsruhe, Germany) […] (Sigma-Aldrich, Taufkirchen, Germany) and 10 mM HEPES (Sigma-Aldrich, Taufkirchen, Germany). The plates are then washed twice with HBSS buffer, and HBSS buffer additionally containing 0.1% BSA (bovine serum albumin; Sigma-Aldrich, Taufkirchen, Germany), 5.6 mM glucose and 0.05% gelatin (Merck KGaA, Darmstadt, Germany) is added to the plates. After incubation for a further 20 minutes at room temperature, the plates are inserted into the FLIPR or Novostar for Ca^2+ measurement. Alternatively, washing is carried out with buffer A (15 mM HEPES, 80 mM NaCl, 5 mM KCl, 1.2 mM CaCl2, 0.7 mM MgSO4, 2 g/l glucose, 2.5 mM probenecid) followed by loading with buffer A with added 2.5 μM Fluo-4 and 0.025% Pluronic F127 (Sigma-Aldrich, Taufkirchen, Germany). The cells are then washed twice with buffer A and incubated for 30 minutes at room temperature with buffer A additionally containing 0.05% BSA and 0.05% gelatin and are then inserted into the FLIPR or Novostar for Ca^2+ measurement. The Ca^2+-dependent fluorescence is measured before and after the addition of substances (λex=488 nm, λem=540 nm). Quantification is carried out by measuring the highest fluorescence intensity (FC, fluorescence counts) over time.
The FLIPR protocol consists of 2 substance additions, which are pipetted in the FLIPR. In the case of measurements using the Novostar, only the second substance addition is pipetted in the device. Both devices measure the fluorescence intensity over time. Test substances (10 μM) are first pipetted onto the cells and the intracellular Ca^2+ increase is compared with the control (hB1R: Lys-Des-Arg^9-bradykinin>=50 nM; rB1R: Des-Arg^9-bradykinin>=1 μM). This gives the % activation, based on the Ca^2+ signal after addition of Lys-Des-Arg^9-bradykinin (>=50 nM) or Des-Arg^9-bradykinin (>=1 μM). […]
In the case of `Cc1cc(N2CCC(N(C)C(=O)c3ccc4c(c3)C(N(C)C(=O)CC(C)C)CC4)CC2)cc(C)n1` (stereo not drawn) [CC_H-90, N-[1-(2,6-Dimethyl-pyridin-4-yl)-piperidin-4-yl]-N-methyl-3-[methyl-(3-methyl-butanoyl)-amino]-2,3-dihydro-1H-indene-5-carboxylic acid amide], the inhibition (as a rule, the change of the read-out against control, counted positive when it falls) at 10 µM is 100%. On the same count and under the same terms, next, `O=C(NCCC1CCN(c2ccncc2)CC1)c1ccc2c(c1)C(NC(=O)c1c(Cl)cccc1C(F)(F)F)CC2` (stereo not drawn) [CC_H-136, 3-[[2-Chloro-6-(trifluoromethyl)-benzoyl]amino]-N-[2-(1-pyridin-4-yl-piperidin-4-yl)-ethyl]-2,3-dihydro-1H-indene-5-carboxylic acid amide]: 100%.

For `CN(C(=O)NC1CCc2cc(C(=O)N(C)C3CCN(c4ccncc4)CC3)ccc21)c1ccccc1Cl` (stereo not drawn) [CC_H-126, 1-[[(2-Chlorophenyl)-methyl-carbamoyl]amino]-N-methyl-N-(1-pyridin-4-yl-piperidin-4-yl)-2,3-dihydro-1H-indene-5-carboxylic acid amide], the inhibition at 10 µM amounted to 100%.

For `CN(C(=O)c1ccc2c(c1)C(NC(=O)c1ccccc1Cl)CCC2)C1CCN(c2ccncc2)CC1` (stereo not drawn) [CC_H-73, 8-[(2-Chloro-benzoyl)amino]-N-methyl-N-(1-pyridin-4-yl-piperidin-4-yl)-5,6,7,8-tetrahydro-naphthalene-2-carboxylic acid amide], the inhibition at 10 µM turned out to be 100%. The same measure, in the same setting: the same measure for `CN(C(=O)NC1CCc2ccc(C(=O)N(C)C3CCN(c4ccc5cnccc5c4)CC3)cc21)c1ccccc1Cl` (stereo not drawn) [CC_H-104, 3-[[(2-Chlorophenyl)-methyl-carbamoyl]amino]-N-(1-isoquinolin-6-yl-piperidin-4-yl)-N-methyl-2,3-dihydro-1H-indene-5-carboxylic acid amide]: 100%; for `Cc1cc(N2CCC(N(C)C(=O)c3ccc4c(c3)C(N(C)C(=O)CCC3CCCC3)CC4)CC2)cc(C)n1` (stereo not drawn) [CC_H-84, 3-(3-Cyclopentyl-propanoyl-methyl-amino)-N-[1-(2,6-dimethyl-pyridin-4-yl)-piperidin-4-yl]-N-methyl-2,3-dihydro-1H-indene-5-carboxylic acid amide]: 100%. The same measure, in the same setting: next, `O=C(CCC1CCCC1)NC1CCc2ccc(C(=O)NCCC3CCN(c4ccncc4)CC3)cc21` (stereo not drawn) [CC_H-101, 3-(3-Cyclopentyl-propanoylamino)-N-[2-(1-pyridin-4-yl-piperidin-4-yl)-ethyl]-2,3-dihydro-1H-indene-5-carboxylic acid amide]: 100%.

Still in this assay, the particulars now being: CHO-K1, read-out: % inhibition (human B1R) at 10 μM.
As for `CCN(C(=O)c1cccc(F)c1Cl)[C@@H]1CCc2ccc(C(=O)N(C)C3CCN(c4cc(C)nc(C)n4)CC3)cc21` [Example H-197, (3R)-3-[(2-Chloro-3-fluoro-benzoyl)-ethyl-amino]-N-[1-(2,6-dimethyl-pyrimidin-4-yl)-piperidin-4-yl]-N-meihyl-2,3-dihydro-1H-indene-5-carboxylic acid amide], the inhibition at 10 µM is 100%. On the same count and under the same terms, the same measure for `Cc1cc(N2CCC(N(C)C(=O)c3ccc4c(c3)[C@H](NC(=O)C3CCCC3)CC4)CC2)nc(C)n1` [Example H-226, (3R)-3-(Cyclopentanecarbonylamino)-N-[1-(2,6-dimethyl-pyrimidin-4-yl)-piperidin-4-yl]-N-methyl-2,3-dihydro-1H-indene-5-carboxylic acid amide]: 99%; for `Cc1cc(N2CCC(N(C)C(=O)c3cc4c(cc3F)CC[C@H]4NC(=O)c3ccccc3Cl)CC2)nc(C)n1` [Example H-213, (3R)-3-[(2-Chloro-benzoyl)amino]-N-[1-(2,6-dimethyl-pyrimidin-4-yl)-piperidin-4-yl]-6-fluoro-N-methyl-2,3-dihydro-1H-indene-5-carboxylic acid amide]: 100%. The same measure, in the same setting: next, `COc1cc(C(=O)N[C@@H]2CCc3ccc(C(=O)N(C)C4CCN(c5cc(C)nc(C)n5)CC4)cc32)on1` [Example H-224, N-[(1R)-6-[[1-(2,6-Dimethyl-pyrimidin-4-yl)-piperidin-4-yl]-methyl-carbamoyl]-2,3-dihydro-1H-inden-1-yl]-3-methoxy-isoxazole-5-carboxylic acid amide]: 98%. Still for that read-out and setting: next, `CN(C(=O)c1ccc2c(c1)[C@H](N(C)C(=O)c1cccc(F)c1Cl)CC2)C1CCN(c2ccncc2)CC1` [Example H-205, (3R)-3-[(2-Chloro-3-fluoro-benzoyl)-methyl-amino]-N-methyl-N-(1-pyridin-4-yl-piperidin-4-yl)-2,3-dihydro-1H-indene-5-carboxylic acid amide]: 100%. For `CC(C)N(C(=O)c1ccc(F)cc1Cl)[C@@H]1CCc2ccc(C(=O)N(C)C3CCN(c4ccncc4)CC3)cc21` [Example H-204, (3R)-3-[(2-Chloro-4-fluoro-benzoyl)-isopropyl-amino]-N-methyl-N-(1-pyridin-4-yl-piperidin-4-yl)-2,3-dihydro-1H-indene-5-carboxylic acid amide], the inhibition at 10 µM was 100%.

The next assay deals with T2, B1R receptor of the rat (CHO K1 cells stably transfected with the B1R gene of the rat) (Rattus norvegicus, UniProt P97583).
T2 construct: expressed in transfected cells; host or cells: CHO K1 cells (Chinese hamster ovary), stably transfected
T2 sequence (P97583 1-337): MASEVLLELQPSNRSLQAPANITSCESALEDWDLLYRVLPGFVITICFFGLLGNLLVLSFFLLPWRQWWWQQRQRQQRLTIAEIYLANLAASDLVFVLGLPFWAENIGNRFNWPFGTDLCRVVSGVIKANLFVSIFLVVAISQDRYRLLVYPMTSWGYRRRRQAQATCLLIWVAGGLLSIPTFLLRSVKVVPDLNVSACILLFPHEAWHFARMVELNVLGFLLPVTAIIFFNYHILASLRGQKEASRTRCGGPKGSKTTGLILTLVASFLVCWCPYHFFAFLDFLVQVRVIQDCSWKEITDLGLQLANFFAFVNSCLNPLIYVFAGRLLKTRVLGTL
Briefly: Functional study on the bradykinin receptor 1 (B1R), Ca2+ fluorescence (Fluo-4) FLIPR/Novostar assay, rB1R cells. It is filed as cell-based. The settings on record: CHO-K1, 10 μM, library compounds CC_H, read-out: % Inhibition (r-B1R) at 10 μM. In short, it runs like this:
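Stably transfected CHO K1 cells carrying human or rat B1R were Fluo-4 loaded and Ca2+ fluorescence read by FLIPR or Novostar. Compounds were added first at 10 μM for % activation, then the EC80 agonist was applied after 6-20 min (human: Lys-Des-Arg9-bradykinin; rat: Des-Arg9-bradykinin). % inhibition is relative to maximum achievable inhibition, and IC50 comes from concentration series.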
`CN(C)C(=O)c1cc(N2CCC(N(C)C(=O)c3ccc4c(c3)C(NC(=O)c3cccnc3C(F)(F)F)CC4)CC2)ccn1` (stereo not drawn) [CC_H-601, N-[6-[[1-[2-(Dimethyl-carbamoyl)-pyridin-4-yl]-piperidin-4-yl]-methyl-carbamoyl]-2,3-dihydro-1H-inden-1-yl]-2-(trifluoromethyl)-pyridine-3-carboxylic acid amide]: the inhibition at 10 µM was determined as 74%.

The assay is the same for the next values; noted with them: CHO-K1, 10 μM, read-out: % Inhibition (r-B1R) at 10 μM.
For `CN(C(=O)NC1CCc2ccc(C(=O)N(C)C3CCN(c4ccc5cnccc5c4)CC3)cc21)c1ccccc1Cl` (stereo not drawn) [CC_H-375, 3-[[(2-Chlorophenyl)-methyl-carbamoyl]amino]-N-(1-isoquinolin-6-yl-piperidin-4-yl)-N-methyl-2,3-dihydro-1H-indene-5-carboxylic acid amide], the inhibition at 10 µM was 91%.
